The results in this text go back to ChEMBL document CHEMBL1201862, “PubChem BioAssay data set” (2004).

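Cells were grown in 96-well plates and exposed to each compound for 48 hours at five concentrations; endpoints were interpolated linearly between bracketing concentrations, or set to the highest concentration if not reached. GI50 marks 50% less growth.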 The source made the active and inactive calls. Rule as the data show it: active = GI50 up to about 1.1 µM and inactive = higher.

Some test systems named below: ACHN; BT-549; CCRF-CEM; DLD-1; DU-145; HOP-62; HOP-92; KM-20L2; LOX IMVI; M14; MCF7; Malme-3M; NCI-H226; OVCAR-3; RPMI-8226; SF-295; SN12C; SNB-19; SR; UACC-62.
Common to all, as to assay: inhibition of tumour cell growth, NCI panel, 48 h

For the compound `O=C1C=CC(=O)c2ccc(=O)ccc21`, the GI50 is 9.68 µM (inactive) with ACHN; 17.7 µM (inactive) with BT-549; 0.802 µM (active) with CCRF-CEM; 4.34 µM (inactive) in the assay on DLD-1; 28.1 µM (inactive) in the assay on DU-145; 25.9 µM (inactive) in the assay with HOP-62. The GI50 in the assay with HOP-92 was 1.89 µM (inactive); with KM-20L2 it was 22.2 µM (inactive); in the assay on LOX IMVI it was 4.7 µM (inactive); with M14, 14.8 µM (inactive); in the assay with MCF7, 28.8 µM (inactive); in the assay on Malme-3M, 18.1 µM (inactive). For the same compound, the GI50 in the assay with NCI-H226 was 34.8 µM (inactive); with OVCAR-3 it was 7.85 µM (inactive); in the assay on RPMI-8226, 3.15 µM (inactive); in the assay on SF-295 it was 13.2 µM (inactive); in the assay with SN12C, 17.3 µM (inactive); in the assay on SNB-19, 16.9 µM (inactive). In addition, the GI50 with SR was 2.02 µM (inactive); with UACC-62, 13.7 µM (inactive).
Regarding `O=C1CC(c2n[nH]c3ccccc23)C(=O)N1c1ccccc1` (stereo not given), the GI50 with ACHN was > 100 µM (inactive); with BT-549, > 100 µM (inactive); in the assay on CCRF-CEM, 29.2 µM (inactive); with DLD-1, > 100 µM (inactive); with DU-145, > 100 µM (inactive); with HOP-62 it was > 100 µM (inactive). In addition, the GI50 is > 78.2 µM (inactive) in the assay on HOP-92; > 100 µM (inactive) in the assay with KM-20L2; > 100 µM (inactive) with LOX IMVI; > 100 µM (inactive) in the assay on M14; > 100 µM (inactive) in the assay with MCF7; > 100 µM (inactive) in the assay with Malme-3M. Further, the GI50 in the assay with NCI-H226 was > 88.5 µM (inactive); with OVCAR-3, > 100 µM (inactive); in the assay on RPMI-8226, 82.8 µM (inactive); in the assay on SF-295 it was > 100 µM (inactive); with SN12C, > 100 µM (inactive); in the assay with SNB-19, > 100 µM (inactive). For the same compound, the GI50 is 36.5 µM (inactive) with SR and > 100 µM (inactive) in the assay on UACC-62.
